{"source": "patent US9983218B2", "about": "“Indole and indoline derivatives and methods of use thereof” (AbbVie Inc., priority 2008, dated 2018)", "key": {"[1]": {"system": "primary postnatal (P0) cortical cells", "assay": "Neurite outgrowth assay (Aβ1-42-induced reduction of neurite outgrowth, high content microscopy)", "assay_type": "cell-based, rat", "settings": "for Emax: Rattus norvegicus, maximum response relative to 300 nM dimebolin, at the concentration given, read-out: Maximum Effect (of % 300 nM Dimebolin)", "procedure": "In addition to PC12 cells, other cellular model systems may also be used. Rat cortical cells were cultured and prepared for high content microscopy analysis as previously described (Hu, M.; Schurdak, M. E.; et al. High content screen microscopy analysis of Aβ1-42-induced neurite outgrowth reduction in rat primary cortical neurons: Neuroprotective effects of α7 neuronal nicotinic acetylcholine receptor ligands. Brain Res. 2007, 1151, 227-235.). Briefly, cortical cell cultures were plated at density of 5×10^5 cells/mL onto poly-D-lysine coated 96-well plates and maintained in a cell incubator at 37° C. with 5% CO2. Experiments were performed using 6-7 day-old cortical cell cultures by treating with test compounds. In some experiments, the effect of test compounds on reversing Aβ toxicity were also measured (Hu, M.; Schurdak, M. E.; et al. High content screen microscopy analysis of Aβ1-42-induced neurite outgrowth reduction in rat primary cortical neurons: Neuroprotective effects of α7 neuronal nicotinic acetylcholine receptor ligands. Brain Res. 2007, 1151, 227-235.). For assessment of neuroprotective effects, cells were first pretreated with test compounds for about 5 hours. Medium was then replaced with the medium containing freshly prepared about 5 μM Aβ1-42 peptide in the absence or presence of the test compounds for 3 days. The untreated group contained the same percentage of vehicle (DMSO) as in the treatment groups. Cells were fixed with approximately 4% paraformaldehyde containing 0.5% Hoechst 33342 for about 15 minutes, followed by three washes using PBS (pH 7.4) and blocked with 10% donkey serum in PBS for 1 hour at room temperature. The cells were then incubated overnight at about 4° C. with mouse anti-tubulin monoclonal antibody (1:100) for staining neurons and rabbit anti-GFAP (1:1000) for staining glia. In the next day, cells were incubated with FITC-labeled anti-mouse and TRITC-labeled anti-rabbit antibodies (1:1000) for about 1 hour at room temperature. After fixing and staining the cells, nuclei (360/400 nm excitation and 465/300 nm emission filters), neuron (475/350 nm excitation and 535/400 nm emission filters) and glial cell (535 nm excitation and 610 nm emission filters) images were collected using the ImageExpress Micro automatic fluorescent microscopy system (Molecular Devices, Sunnyvale, Calif.) employing a Nikon 10× Plan Fluor objective and Cool Snap HQ CCD camera. The Neurite Outgrowth module in the MetaMorph Imaging software was used to automatically count total cell number, number of neuron cells, and the extent of neurite outgrowth.\nIn the graph of FIG. 2, 100% response was the response observed for untreated cells. Exposure to Aβ1-42 produced a decrease in neurite outgrowth. Treatment of cells with compounds prior to and concomitantly with Aβ1-42 gave a neuroprotective effect with neurite outgrowth maintained or enhanced relative to untreated cells."}, "[2]": {"system": "SK-N-SH human neuroblastoma cells", "assay": "Serum deprivation/JC-1 mitochondrial membrane potential (MMP) assay", "assay_type": "cell-based", "how_it_was_run": "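Cells were serum-deprived ~18 h in MEM with or without compound (DMSO ≤1%), then stained with JC-1 for 35 min at 37° C. The red/green fluorescence ratio (560/595 vs 485/535 nm) was normalized to the peak response of 10 μM dimebolin. EC50 came from one curve fit to mean data (n=2-3, duplicates).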"}, "[3]": {"system": "mice", "assay": "Inhibitory avoidance in mouse", "assay_type": "in vivo", "settings": "24-hour recall, significant at 0.11 mg/kg and 1.1 mg/kg, FIG. 4", "procedure": "Inhibitory Avoidance in Mouse: The inhibitory avoidance task involves the uses of a two-compartment step through apparatus (Ugo Basile, Collegeville, Pa.) that measures the animal's ability to remember a brief noxious stimulus (foot shock), and is considered a measure of trial learning, and memory consolidation. Briefly, mice were placed in a lighted compartment of the apparatus where the latency to enter into the preferred dark compartment is recorded. […] Retention testing was conducted 24 hours later with the animal again placed in the lighted compartment where its latency to reenter the dark side of the apparatus was measured (no shock). Increasing retention latency was regarded as an index of memory consolidation (Bitner, R. S.; Bunnelle, W. H.; et al. Broad-spectrum efficacy across cognitive domains by α7 nicotinic acetylcholine receptor agonism correlates with activation of ERK1/2 and CREB phosphorylation pathways. J. Neurosci. 2007, 27(39), 10578-10587.)."}, "[4]": {"system": "mouse model of multiple sclerosis", "settings": "in vivo administration; cited from earlier work"}, "[5]": {"system": "PC12 cells", "assay": "Number of neuron-like cells in nerve growth factor-differentiated PC12 cells (HCS microscopy)", "assay_type": "cell-based", "settings": "NGF-differentiated PC12 cells, 24 hours post-treatment, normalized to 10 μM dimebolin; FIG. 1", "procedure": "For example, studies were conducted using PC12 cells plated in 96-well plates, treated with or without nerve growth factor (100 ng/mL) for 6 days. Compounds were then added at various concentrations (ranging from 0.1 nM to 30 μM), and incubated for 24 hours. Cells were then fixed and stained by neuron marker β-tubulin (green), and nuclei were stained by Hoechst 33342 (blue). Images were collected using the ImageXpress Micro automatic fluorescent microscopy system (Molecular Devices, Sunnyvale, Calif.) employing a Nikon 10× Plan Fluor objective and Cool Snap HQ CCD camera. The Neurite Outgrowth module in the MetaMorph Imaging software was used to automatically count neuron-like number, and the extent of neurite outgrowth (See, FIG. 1)."}, "[6]": {"system": "Male Sprague Dawley rats", "assay": "Analgesic effect against neuropathic pain (L5/L6 spinal nerve ligation, von Frey filaments)", "assay_type": "in vivo", "settings": "rat", "procedure": "Animals were prepared for testing, by use of a surgical procedure that induces neuropathic pain in one paw. Male Sprague Dawley rats were purchased from Charles River (Portage, Mich.). Prior to surgery, animals were housed in groups and maintained in a temperature-regulated environment. Following nerve ligation surgery, animals were housed in groups, and had access to food and water ad libitum.\nThe L5 and L6 spinal nerves of anesthetized rats were tightly ligated in a manner described previously (see Kim and Chung, Pain (1992) vol. 50 pp. 355-363). An incision was made on the dorsal portion of the hip and the muscle was blunt-dissected to reveal the spinal processes. The L6 transverse process was removed, and the left side L5 and L6 spinal nerves were tightly ligated with 5.0 braided silk suture. The wound was cleaned, the membrane sewn with 4.0 dissolvable Vicryl suture and the skin closed with wound clips. The paw affected by the surgical procedure (the left paw) develops an allodynic response, a hypersensitivity to mechanical and other stimuli; neuropathic pain is assessed as an increased sensitivity in the surgically affected (left) allodynic paw compared to the control paw on the right side, and measured by comparing the response of the (left side) allodynic paw to the response of the unaffected right side control paw.\nFor the assessment of neuropathic pain, mechanical allodynia in the affected paw of animals that had undergone spinal nerve ligation was evaluated using testing with von Frey filaments. As described previously by S. R. Chaplan, et al (“Quantitative assessment of tactile allodynia in the rat paw” J. Neurosci. Meth. (1994) vol. 53 pp. 55-63), two weeks following surgery rats were acclimated to a testing box constructed of plexiglass with a wire mesh floor which allowed access to the plantar surface of the animal's hindpaws. […] The efficacy of the compound in reducing neuropathic pain at different doses was determined by comparing response in the surgery-affected paw versus the response in the control paw. […]"}, "[7]": {"system": "primary rat cortical neurons", "settings": "comparable to that evoked by BDNF; cited from earlier work"}, "[8]": {"system": "Patients with mild-to-moderate Alzheimer's disease", "settings": "cited from earlier work"}}, "note": "Entries after “also recorded” stand apart in the source; their conditions may differ.", "data": [{"compound": "Cc1ccc2c(c1)c1c(n2CCc2ccc(C)nc2)C[C@@H]2CC[C@H]1N2", "note": "(single isomer, unassigned) [Example 5]", "values": [{"measurement": "Emax", "setting": "[1]", "value": 123, "unit": "%"}, {"measurement": "Aβ1-42-induced reduction of neurite outgrowth", "setting": "[1]; pretreatment about 5 hours, then about 5 μM Aβ1-42 with test compound for 3 days, FIG. 2", "value": "significant attenuation; also recorded: neurite outgrowth levels similar to or enhanced relative to untreated control cells"}, {"measurement": "Emax", "setting": "[2]; Homo sapiens, SK-N-SH, percent maximal intensity in JC-1 ratio normalized to 10 μM dimebolin, read-out: JC-1 max %", "value": 209, "unit": "%"}, {"measurement": "EC50", "setting": "[2]; Homo sapiens, SK-N-SH cells, serum deprivation ~18 hours, JC-1 ratio normalized to peak value for 10 μM dimebolin, single curve fit to mean data of n=2-3, read-out: EC50", "value": 13, "unit": "µM"}, {"measurement": "maintenance of mitochondrial function (JC-1 ratio) under cellular stress", "setting": "[2]; SK-N-SH cells, relative to 10 μM dimebolin (100% response), FIG. 3", "value": "maintained mitochondrial function in a dose dependent manner; also recorded: concentration-dependent enhancement of mitochondrial function maintenance"}, {"measurement": "latency to reenter the dark side (punishment side)", "setting": "[3]", "value": "significantly increased; also recorded: concentration-dependent improvement"}]}, {"compound": "O=C1C=C(c2ccccc2)C(=O)N1c1cccc(Cl)c1", "note": "[1-(3-chlorophenyl)-3-phenyl-pyrrole-2,5-dione]", "values": [{"measurement": "development of the disease", "setting": "[4]", "value": "significantly prevented the development of the disease"}]}, {"compound": "Cc1ccc2c(c1)c1c(n2CCc2ccc(C)nc2)CC2CCC1N2C", "note": "(stereo not drawn) [Example 1, 2,11-dimethyl-5-[2-(6-methylpyridin-3-yl)ethyl]-5,6,7,8,9,10-hexahydro-7,10-epiminocyclohepta[b]indole]", "values": [{"measurement": "number of neuron-like cells", "setting": "[5]", "value": "concentration-dependent effects"}]}, {"compound": "Cc1ccc2c(c1)c1c(n2CCc2ccc(C)nc2)C2CCN(CC2)C1", "note": "[Example 2, 9-methyl-6-[2-(6-methylpyridin-3-yl)ethyl]-3,4,5,6-tetrahydro-1H-2,5-ethanoazepino[4,3-b]indole]", "values": [{"measurement": "Emax", "setting": "[1]", "value": 117, "unit": "%"}, {"measurement": "reduction in mechanical allodynia", "setting": "[6]; 10 mg/kg intraperitoneal injection, 30 minutes before testing, **p<0.01, ***p<0.001 vs. vehicle, FIG. 6", "value": 58, "unit": "%"}, {"measurement": "adverse effects", "setting": "[6]; i.p. 1, 3, and 10 mg/kg", "value": "No complicating adverse effects were observed"}, {"measurement": "withdrawal threshold for allodynic limb (pressure applied to elicit a pain response)", "setting": "[6]; intraperitoneally 30 minutes before testing, maximum effect 15 g", "value": "concentration-dependent improvement"}]}, {"compound": "Cc1ccc2c(c1)c1c(n2CCc2ccc(C)nc2)CCN(C)C1", "note": "[dimebolin, 2,3,4,5-tetrahydro-2,8-dimethyl-5-[2-(6-methyl-3-pyridinyl)ethyl]-1H-pyrido[4,3-b]indole]", "values": [{"measurement": "neurite outgrowth", "setting": "[7]", "value": "increase neurite outgrowth"}, {"measurement": "clinical course of disease (improvement over baseline for ADAS-Cog)", "setting": "[8]; 20 mg three times a day (60 mg/day)", "value": "significant improvement"}, {"measurement": "most frequent adverse event", "setting": "[8]; clinical studies of dimebolin", "value": "dry mouth"}]}]}
